This is an account of results in article PMC7692923, “Co-Ingestion of Black Carrot and Strawberry. Effects on Anthocyanin Stability, Bioaccessibility and Uptake” (Foods, 2020).

Type in all cases: in vitro ADME
Data set [1] can be described thus: Gastric stability of anthocyanins in extracts, standardized in vitro digestion (simulated gastric fluid, pepsin, pH 3.0). The conditions noted are these: for Gastric stability: % of undigested. The procedure:
(§1) A standardized in vitro digestion procedure was applied to each sample [20]. For the gastric phase, 7.5 mL of a simulated gastric fluid (in mM: KCl 6.9, KH2PO4 0.9, NaHCO3 25, NaCl 47.2, MgCl2(H2O) 0.1, (NH4)2CO3 0.5, pH 3.0), 5 µL of CaCl2 (0.3 M) and 1.6 mL of porcine pepsin solution (25,000 U/mL) were added and the pH of was adjusted to 3.0 using HCl (1 M). Demineralized water was added to the gastric chyme to complete a volume of 20 mL. Nitrogen was flushed into the headspace of the tubes before incubation at 37 °C during 2 h in the dark, while end-over-end rotation (40 rpm). For the intestinal phase simulation, the gastric chyme was mixed with 11 mL of simulated intestinal fluid (in mM: KCl 6.8, KH2PO4 0.8, NaHCO3 85, NaCl 38.4, MgCl2(H2O) 0.33, pH 7.0), 40 µL of CaCl2, 5 mL of pancreatin solution (800 U/mL based on trypsin activity) and 2.5 mL of bile solution (160 mM). NaOH (1 M) was used to adjust the pH to 7 and water to complete the volume until 40 mL. Prior to incubation in the dark, at 37 °C, 2 h, end-over-end rotation, the headspace of the tubes was flushed with nitrogen.
(§2) Aliquots from gastric and intestinal digests were sampled along black carrot and strawberry extracts digestion, stabilized by acidification with formic acid and stored at −20 °C until further analysis. Stability (%) was calculated as indicated by Equations (1) and (2). (1) Gastric stability (%)=(anthocyanin (mg·100 mL^−1) after gastric digestion)/(anthocyanin (mg·100 mL^−1) before digestion)×100 (2) Intestinal stability (%)=(anthocyanin (mg·100 mL^−1) after intestinal digestion)/(anthocyanin (mg·100 mL^−1) before digestion)×100

Data set [2] is described as follows: Intestinal stability of anthocyanins in extracts, standardized in vitro digestion (simulated intestinal fluid, pancreatin, bile, pH 7). The conditions noted are these: for Intestinal stability: % of undigested; for Post-Intestinal concentration: mean ± SD n = 3. On the procedure:
as §1, §2

Data set [3] in a line: In vitro bioaccessibility after digestion of matrix-containing powder. The note with it: for Post-digestion concentration (bioaccessible fraction): mean ± SD n = 3. On the procedure: as §1
After digestion of the powdered samples, an ultracentrifugation (Beckman L7 ultracentrifuge, Palo, Alto, CA, USA) at 165,000× g, 4 °C, 65 min, was performed to separate soluble and non-soluble fractions. The supernatant, containing the bioaccessible anthocyanins, was isolated. For the determination of anthocyanins, the digest was acidified with formic acid (1%) to stabilize the compounds, prior to the quantification by high performance liquid chromatography (HPLC). Results are shown as the ratio of the bioaccessible compound concentration to the initial compound concentration in the sample, as indicated in Equation (3). (3) Bioaccessibility (%)=(anthocyanin (mg.100 g^−1) after digestion)/(anthocyanin (mg.100 g^−1) before digestion)×100

The mark [4] stands for this setting: co-digestion of black carrot and strawberry extracts.
Setting [5] is: co-digestion of black carrot and strawberry extracts, mean ± SD n = 3.
[6] abbreviates: single digestion, liquid extract, 2 h 37 °C pH 3.0, mean ± SD n = 3.
[7] abbreviates: single digestion, liquid extract.
Setting [8] is: single digestion, liquid extract, pH 7, 2 h 37 °C.
The mark [9] stands for this setting: co-digestion of black carrot and strawberry powder.
[10] abbreviates: single digestion, matrix-containing powder.

For `O=C(/C=C/c1ccc(O)cc1)OC[C@H]1O[C@@H](OC[C@H]2O[C@@H](Oc3cc4c(O)cc(O)cc4[o+]c3-c3ccc(O)c(O)c3)[C@H](O[C@@H]3OC[C@@H](O)[C@H](O)[C@H]3O)[C@@H](O)[C@H]2O)[C@H](O)[C@@H](O)[C@@H]1O` [Cyanidin-3-xylosyl-coumaroyl-glucosyl-galactoside], the results for the Gastric stability in data set [1] (setting [4]) and in data set [1] (setting [7]) were 66% and 65%, respectively. In addition, the Post-Gastric concentration in data set [1] (setting [5]) is 1.16 ± 0.02 mg/100 mL of extract; in data set [1] (setting [6]) it was 1.14 ± 0.01 mg/100 mL of extract. Moreover, the Intestinal stability was 42% in data set [2] (setting [4]) and 48% in data set [2] (setting [7]). The Post-Intestinal concentration in data set [2] (setting [4]) is recorded as 0.75 ± 0.04 mg/100 mL of extract; in data set [2] (setting [8]), 0.85 ± 0.07 mg/100 mL of extract. The Bioaccessibility in data set [3] (setting [9]) is 52%; in data set [3] (setting [10]), 28%. Besides, the “Post-digestion concentration (bioaccessible fraction)” value is reported as 105.2 ± 0.9 mg/100 g of sample (dry weight) in data set [3] (setting [9]) and 55.8 ± 5.2 mg/100 g of sample (dry weight) in data set [3] (setting [10]).
In the case of `COc1cc(/C=C/C(=O)OC[C@H]2O[C@@H](OC[C@H]3O[C@@H](Oc4cc5c(O)cc(O)cc5[o+]c4-c4ccc(O)c(O)c4)[C@H](O[C@@H]4OC[C@@H](O)[C@H](O)[C@H]4O)[C@@H](O)[C@H]3O)[C@H](O)[C@@H](O)[C@@H]2O)ccc1O` [Cyanidin-3-xylosyl-feruloyl-glucosyl-galactoside], the Gastric stability in data set [1] (setting [4]) and in data set [1] (setting [7]) was 86% each time. In addition, the Post-Gastric concentration in data set [1] (setting [5]) is recorded as 8.28 ± 0.03 mg/100 mL of extract; in data set [1] (setting [6]) it was 8.23 ± 0.04 mg/100 mL of extract. Also, the Intestinal stability is 60% in data set [2] (setting [4]) and 58% in data set [2] (setting [7]). Moreover, the Post-Intestinal concentration in data set [2] (setting [4]) was 5.81 ± 0.03 mg/100 mL of extract; in data set [2] (setting [8]), 5.54 ± 0.05 mg/100 mL of extract. The Bioaccessibility in data set [3] (setting [9]) is reported as 48%; in data set [3] (setting [10]), 34%. Besides, the “Post-digestion concentration (bioaccessible fraction)” value in data set [3] (setting [9]) is 528.3 ± 15.0 mg/100 g of sample (dry weight); in data set [3] (setting [10]), 378.4 ± 26.1 mg/100 g of sample (dry weight).
As for `O=C(O)CC(=O)OC[C@H]1O[C@@H](Oc2cc3c(O)cc(O)cc3[o+]c2-c2ccc(O)cc2)[C@H](O)[C@@H](O)[C@@H]1O` [Pelargonidin-3-malonyl-glucoside], the Gastric stability is 92% in data set [1] (setting [4]) and 87% in data set [1] (setting [7]). In addition, the values for the Post-Gastric concentration in data set [1] (setting [5]) and in data set [1] (setting [6]) were 3.57 ± 0.07 mg/100 mL of extract and 3.37 ± 0.01 mg/100 mL of extract, respectively. The Intestinal stability was 49% in data set [2] (setting [4]) and 46% in data set [2] (setting [7]). Further, the Post-Intestinal concentration in data set [2] (setting [4]) was 1.91 ± 0.02 mg/100 mL of extract; in data set [2] (setting [8]), 1.77 ± 0.01 mg/100 mL of extract. For the same compound, the Bioaccessibility is 36% in data set [3] (setting [9]) and 34% in data set [3] (setting [10]). Also, the “Post-digestion concentration (bioaccessible fraction)” value in data set [3] (setting [9]) was 81.3 ± 6.6 mg/100 g of sample (dry weight); in data set [3] (setting [10]) it was 76.2 ± 1.8 mg/100 g of sample (dry weight).
As to `OC[C@H]1O[C@@H](Oc2cc3c(O)cc(O)cc3[o+]c2-c2ccc(O)cc2)[C@H](O)[C@@H](O)[C@@H]1O` [Pelargonidin-3-glucoside], the Gastric stability is given as 76% in data set [1] (setting [4]) and 90% in data set [1] (setting [7]). Also, the figures for the Post-Gastric concentration in data set [1] (setting [5]) and in data set [1] (setting [6]) were 12.63 ± 0.46 mg/100 mL of extract and 11.13 ± 0.09 mg/100 mL of extract, respectively. The Intestinal stability in data set [2] (setting [4]) is listed as 35%; in data set [2] (setting [7]) it was 49%. For the same compound, the Post-Intestinal concentration was 5.78 ± 0.13 mg/100 mL of extract in data set [2] (setting [4]) and 6.01 ± 0.02 mg/100 mL of extract in data set [2] (setting [8]). For the same compound, the Bioaccessibility in data set [3] (setting [9]) was determined as 28%; in data set [3] (setting [10]), 36%. In addition, the “Post-digestion concentration (bioaccessible fraction)” value in data set [3] (setting [9]) is 272.5 ± 19.7 mg/100 g of sample (dry weight); in data set [3] (setting [10]), 256.6 ± 8.3 mg/100 g of sample (dry weight).
`OC[C@H]1O[C@@H](OC[C@H]2O[C@@H](Oc3cc4c(O)cc(O)cc4[o+]c3-c3ccc(O)c(O)c3)[C@H](O[C@@H]3OC[C@@H](O)[C@H](O)[C@H]3O)[C@@H](O)[C@H]2O)[C@H](O)[C@@H](O)[C@@H]1O` [Cyanidin-3-xylosyl-glucosyl-galactoside]: the Gastric stability in data set [1] (setting [4]) was 56%; in data set [1] (setting [7]), 59%. Further, the Post-Gastric concentration in data set [1] (setting [5]) was 0.24 ± 0.02 mg/100 mL of extract; in data set [1] (setting [6]), 0.25 ± 0.01 mg/100 mL of extract. The Intestinal stability was 99% in data set [2] (setting [4]) and 86% in data set [2] (setting [7]). The Post-Intestinal concentration is 0.42 ± 0.00 mg/100 mL of extract in data set [2] (setting [4]) and 0.36 ± 0.00 mg/100 mL of extract in data set [2] (setting [8]). For the same compound, the values for the Bioaccessibility in data set [3] (setting [9]) and in data set [3] (setting [10]) were 105% and 62%, respectively. The results for the “Post-digestion concentration (bioaccessible fraction)” value in data set [3] (setting [9]) and in data set [3] (setting [10]) were 50.5 ± 9.2 mg/100 g of sample (dry weight) and 29.7 ± 3.7 mg/100 g of sample (dry weight), respectively.
As to `OC[C@H]1O[C@@H](Oc2cc3c(O)cc(O)cc3[o+]c2-c2ccc(O)c(O)c2)[C@H](O[C@@H]2OC[C@@H](O)[C@H](O)[C@H]2O)[C@@H](O)[C@H]1O` [Cyanidin-3-xylosyl-galactoside], the Gastric stability was 83% in data set [1] (setting [4]) and 81% in data set [1] (setting [7]). Besides, the Post-Gastric concentration was 0.98 ± 0.02 mg/100 mL of extract in data set [1] (setting [5]) and 0.95 ± 0.00 mg/100 mL of extract in data set [1] (setting [6]). The Intestinal stability is 92% in data set [2] (setting [4]) and 79% in data set [2] (setting [7]). For the same compound, the Post-Intestinal concentration in data set [2] (setting [4]) is 1.09 ± 0.01 mg/100 mL of extract; in data set [2] (setting [8]), 0.94 ± 0.01 mg/100 mL of extract. The Bioaccessibility in data set [3] (setting [9]) worked out at 84%; in data set [3] (setting [10]), 33%. Moreover, the “Post-digestion concentration (bioaccessible fraction)” value in data set [3] (setting [9]) was 113.8 ± 0.2 mg/100 g of sample (dry weight); in data set [3] (setting [10]) it was 44.1 ± 4.4 mg/100 g of sample (dry weight).
